According to paper PMC9138505, “Small Molecule 20S Proteasome Enhancer Regulates MYC Protein Stability and Exhibits Antitumor Activity in Multiple Myeloma” (Biomedicines, 2022):
Values joined by “and” are separate entries in the source; they are usually repeats but may differ in a detail not shown here. Equal values may be shown once.

System: RPMI-8226 cells
Assay: Gene expression profiling, NanoString nCounter PanCancer Pathways Panel, ROSALIND analysis
Format: cell-based, human
Details: RPMI-8226, TCH-165 samples 1-3
Experimental: RPMI-8226 cells were treated with vehicle or TCH-165 (10 μM) for 4 h. Total RNA was obtained using the mirVana miRNA Isolation Kit, with phenol (Thermofisher Scientific; AM1560; Waltham, MA, USA). Total RNA was quantified by Qubit (Thermofisher Scientific; Q32855; Waltham, MA, USA). and gene expression was evaluated against the nCounter® PanCancer Pathways Panel^TM according to the standard NanoString protocol.
Data were analyzed by ROSALIND® [36] with a hyperscale architecture developed by ROSALIND, Inc. (San Diego, CA, USA). Normalization, fold changes and p-values were calculated using criteria provided by NanoString. ROSALIND follows the nCounter® Advanced Analysis protocol of dividing counts within a lane by the geometric mean of the normalizer probes from the same lane. Housekeeping probes to be used for normalization are selected based on the geNorm algorithm, as implemented in the NormqPCR R library. Fold changes and p-values are calculated using the fast method as described in the nCounter Advanced Analysis 2.0 User Manual. The p-value adjustment is performed using the Benjamini–Hochberg method of estimating false discovery rates (FDR). Clustering of genes for the final heatmap of differentially expressed genes was done using the PAM (Partitioning Around Medoids) method using the fpc R library. Hypergeometric distribution was used to analyze the enrichment of pathways, gene ontology, domain structure and other ontologies. The topGO R library was used to determine local similarities and dependencies between GO terms in order to perform Elim pruning correction. Several database sources were referenced for enrichment analysis, including Interpro [40], NCBI [41], MSigDB [42, 43], REACTOME [44], WikiPathways. Enrichment was calculated relative to a set of background genes relevant to the experiment.

CCOC(=O)[C@]1(c2ccccc2)N=C(c2ccc(OC)cc2)N(Cc2ccccc2)[C@@H]1c1ccc(NCc2ccccc2)cc1 [TCH-165]
PDGFA normalized gene expression: 6.283 and 6.012 and 6.0068 | PDGFB normalized gene expression: 4.649 and 4.855 and 4.437 | PDGFRA normalized gene expression: 4.401 and 4.3768 and 3.876 | PDGFRB normalized gene expression: 4.86 and 4.614 and 4.483 | PGF normalized gene expression: 5.308 and 4.817 and 4.238 | PIK3CA normalized gene expression: 10.0553 and 10.0309 and 10.0578 | PIK3CB normalized gene expression: 6.955 and 6.836 and 6.778 | PIK3CD normalized gene expression: 5.445 and 5.636 and 4.975 | PIK3CG normalized gene expression: 8.477 and 8.424 and 8.357 | PIK3R1 normalized gene expression: 7.74 and 7.729 and 7.668 | PIK3R3 normalized gene expression: 10.4707 and 10.3784 and 10.3886 | PIK3R5 normalized gene expression: 8.581 and 8.361 and 8.483 | PIM1 normalized gene expression: 9.677 and 9.621 and 9.503 | PITX2 normalized gene expression: 3.723 and 3.817 and 3.39 | PKMYT1 normalized gene expression: 9.448 and 9.494 and 9.482 | PLA1A normalized gene expression: 4.571 and 4.7789 and 4.5707 | PLA2G2A normalized gene expression: 5.723 and 5.0613 and 5.549 | PLA2G3 normalized gene expression: 5.955 and 5.7789 and 5.549 | PLA2G4A normalized gene expression: 9.821 and 9.8479 and 9.947 | PLA2G4C normalized gene expression: 3.986 and 4.324 and 4.0682 | PLA2G5 normalized gene expression: 4.208 and 4.855 and 5.0068 | PLA2G10 normalized gene expression: 4.793 and 4.569 and 4.9095 | PLAT normalized gene expression: 5.101 and 4.855 and 4.805 | PLAU normalized gene expression: 5.758 and 5.452 and 5.461 | PLCB1 normalized gene expression: 7.331 and 7.169 and 7.1906 | PLCB4 normalized gene expression: 8.221 and 8.1619 and 8.141 | PLCE1 normalized gene expression: 3.571 and 3.962 and 3.291 | PLCG2 normalized gene expression: 7.802 and 7.657 and 7.688 | PLD1 normalized gene expression: 4.723 and 4.524 and 4.0068 | PML normalized gene expression: 9.305 and 9.103 and 9.111 | POLB normalized gene expression: 8.277 and 8.166 and 8.094 | POLD1 normalized gene expression: 6.955 and 6.97 and 7.225 | POLE2 normalized gene expression: 7.876 and 7.784 and 7.712 | POLR2D normalized gene expression: 10.3534 and 10.1749 and 10.2456 | POLR2H normalized gene expression: 9.625 and 9.653 and 9.593 | POLR2J normalized gene expression: 8.023 and 8.1988 and 7.922 | PPARG normalized gene expression: 5.308 and 4.093 and 4.841 | PPARGC1A normalized gene expression: 5.156 and 4.855 and 4.5707 | PPP2CB normalized gene expression: 9.355 and 9.581 and 9.539 | PPP2R1A normalized gene expression: 10.9153 and 10.8543 and 10.8588 | PPP2R2B normalized gene expression: 5.208 and 3.891 and 3.876 | PPP2R2C normalized gene expression: 4.401 and 4.154 and 4.653 | PPP3CA normalized gene expression: 8.9359 and 8.866 and 8.858 | PPP3CB normalized gene expression: 6.793 and 6.5 and 6.673 | PPP3CC normalized gene expression: 7.784 and 7.44 and 7.5547 | PPP3R1 normalized gene expression: 12.1844 and 12.0743 and 12.0585 | PRDM1 normalized gene expression: 9.955 and 9.965 and 9.796 | PRKAA2 normalized gene expression: 5.445 and 4.927 and 5.238 | PRKACA normalized gene expression: 10.3765 and 10.3832 and 10.3727 | PRKACB normalized gene expression: 9.149 and 8.936 and 8.955 | PRKACG normalized gene expression: 5.955 and 4.996 and 4.975 | PRKAR1B normalized gene expression: 7.319 and 7.093 and 7.231 | PRKAR2A normalized gene expression: 10.8995 and 10.8368 and 10.7359 | PRKAR2B normalized gene expression: 4.924 and 5.5 and 5.291 | PRKCA normalized gene expression: 5.61 and 5.739 and 5.858 | PRKCB normalized gene expression: 5.101 and 5.5 and 5.1271 | PRKCG normalized gene expression: 3.208 and 3.154 and 2.805 | PRKDC normalized gene expression: 10.6509 and 10.6549 and 10.5707 | PRKX normalized gene expression: 6.924 and 6.699 and 6.769 | PRL normalized gene expression: 5.156 and 4.7789 and 4.483 | PRLR normalized gene expression: 4.401 and 4.324 and 4.483 | PROM1 normalized gene expression: 5.488 and 4.817 and 5.1271 | PTCH1 normalized gene expression: 6.423 and 6.1393 and 6.303 | PTEN normalized gene expression: 10.0245 and 10.0523 and 10.0068 | PTPN11 normalized gene expression: 10.4091 and 10.3872 and 10.2825 | PTPRR normalized gene expression: 5.156 and 5.27 and 4.876 | PTTG2 normalized gene expression: 10.7067 and 10.7173 and 10.7103 | RAC1 normalized gene expression: 10.809 and 10.6987 and 10.6841 | RAC2 normalized gene expression: 9.175 and 9.2187 and 9.226 | RAC3 normalized gene expression: 7.412 and 7.085 and 7.42 | RAD21 normalized gene expression: 12.3086 and 12.2658 and 12.2586 | RAD50 normalized gene expression: 8.5605 and 8.589 and 8.653 | RAD51 normalized gene expression: 8.142 and 8.041 and 8.102 | RAD52 normalized gene expression: 7.767 and 7.625 and 7.698 | RAF1 normalized gene expression: 10.0005 and 9.906 and 9.965 | RASA4 normalized gene expression: 8.175 and 8.284 (2×) | RASAL1 normalized gene expression: 7.884 and 7.864 and 8.034 | RASGRF1 normalized gene expression: 5.355 and 5.27 and 5.1271 | RASGRF2 normalized gene expression: 4.401 and 4.154 and 4.39 | RASGRP1 normalized gene expression: 3.571 and 3.27 and 2.805 | RASGRP2 normalized gene expression: 5.355 and 4.7789 and 5.184 | RB1 normalized gene expression: 10.4258 and 10.2516 and 10.3605 | RBX1 normalized gene expression: 11.212 and 11.2858 and 11.2821 | RELA normalized gene expression: 9.023 and 9.033 and 8.932 | RELN normalized gene expression: 3.208 and 3.154 and 2.653 | RET normalized gene expression: 4.488 and 3.154 and 4.1271 | RFC3 normalized gene expression: 10.5818 and 10.4756 and 10.5331 | RFC4 normalized gene expression: 10.5805 and 10.6642 and 10.6099 | RHOA normalized gene expression: 10.324 and 10.1814 and 10.1759 | RIN1 normalized gene expression: 5.308 and 5.324 and 5.211 | RNF43 normalized gene expression: 5.044 and 4.569 and 4.528
